Assay results from patent publication US20260207717A1, “METHODS FOR TREATING INFANTILE-ONSET POMPE DISEASE IN PEDIATRIC PATIENTS” (Amicus Therapeutics, Inc., priority 2022, published 2026).
“Also recorded” adds a separate entry of the source. Where two headings read alike, the source gives them in different places. Marks after values point to notes of the source that are not given here.

Experiments:
[1] = test system: normal and Pompe fibroblast cell lines; test: Cellular uptake of rhGAA (internalized GAA by 4MU-α-Glucoside hydrolysis); assay type: cell-based
Experimental: The relative cellular uptake of ATB200 and LUMIZYME® rhGAA were compared using normal and Pompe fibroblast cell lines. Comparisons involved 5-100 nM of ATB200 according to the disclosure with 10-500 nM conventional rhGAA product LUMIZYME®. After 16-hr incubation, external rhGAA was inactivated with TRIS base and cells were washed 3-times with PBS prior to harvest. Internalized GAA measured by 4MU-α-Glucoside hydrolysis and was graphed relative to total cellular protein and the results appear in FIGS. 11A-11C.
ATB200 was also shown to be efficiently internalized into cells. […] ATB200 saturates cellular receptors at about 20 nM, while about 250 nM of LUMIZYME® is needed to saturate cellular receptors.

[2] = Thermostability assay using SYPRO Orange; assay type: physicochemical
Experimental: The stability of ATB200 in acidic or neutral pH buffers was evaluated in a thermostability assay using SYPRO Orange, as the fluorescence of the dye increases when proteins denature. […] As summarized in Table 10, the addition of miglustat increased the melting temperature (Tm) of ATB200 by nearly 10° C.

[3] = test system: single fibers isolated from the white gastrocnemius of Gaa KO mice; test: Single fiber analysis (LAMP1/LC3 co-immunofluorescence); assay type: in vivo
Text: FIG. 17 depicts co-immunofluorescent staining of LAMP1 (green) (see for example, “B”) and LC3 (red) (see, for example, “A”) in single fibers isolated from the white gastrocnemius of Gaa KO mice treated with a vehicle, alglucosidase alfa, or ATB200. “C” depicts clearance of autophagic debris and absence of enlarged lysosome. A minimum of 30 fibers were examined from each animal.
As a result, a significant portion of muscle fibers analyzed (36-60%) from ATB200-treated mice appeared normal or near-normal.

pediatric IOPD patients = test: Tolerability and accumulation in 3 pediatric IOPD patients of the EAP; assay type: in vivo, human; conditions: 30 mg/kg cipaglucosidase alfa in combination with miglustat, 3 pediatric IOPD patients in the EAP
Experimental: The cipaglucosidase alfa dose of 30 mg/kg being evaluated in this protocol was determined from population PK modeling and simulation analyses that included pooled data from 96 adults and 11 pediatric subjects dosed at 20, 25, and 30 mg/kg, including 3 pediatric IOPD patients from the Expanded Access Program (EAP) (ages 1 to 3 years) at the 30 mg/kg dose level. The 30 mg/kg dose level in combination with additional effect from miglustat provided exposures that are well within the safety margin and multiples of exposure established by the juvenile toxicology no-observed-adverse effect-level (NOAEL) of 150 mg/kg.
This frequency of dosing is based on the systemic clearance of the cipaglucosidase alfa and miglustat, and the acuity/severity of disease in IOPD, as well as observations in 3 IOPD patients enrolled in the EAP (ERT-experienced patients in clinical decline).
A weekly frequency of 30 mg/kg cipaglucosidase alfa and miglustat administration will be evaluated in this study. A weekly 30 mg/kg cipaglucosidase alfa and miglustat dose has been administered in pediatric subjects with IOPD from the EAP. […] The rationale for weekly dosing in both cohorts is based on evidence supporting improved survival for IOPD patients receiving weekly dosing of standard of care ERT compared to every other week dosing (Ditters, Huidekper et al, 2021). […]

pediatric IOPD patient = conditions: for LVEF / LVMI: 2 D

ATB200: recombinant human acid α-glucosidase with a high content of N-glycans bearing mono-M6P and bis-M6P, produced from a GA-ATB200 cell line
concentration that saturates cellular receptors ([1]; 16-hr incubation): about 20 nM
internalization into normal and Pompe fibroblast cells ([1]; compared with LUMIZYME): internalized to a greater degree
uptake efficiency constant (Kuptake) ([1]; extrapolated, FIG. 11C): 2-3 nm
Tm ([2]; pH 5.2): 67.3 °C
Tm ([2]; pH 7.4): 56.2 °C
increase of melting temperature (Tm) by addition of miglustat ([2]; pH 7.4): ~10 °C
Tm ([2]; pH 7.4 + 10 μM miglustat): 61.6 °C
Tm ([2]; pH 7.4 + 30 μM miglustat): 62.9 °C
Tm ([2]; pH 7.4 + 100 μM miglustat): 66.0 °C
Fibers with Autophagy Buildup [3]: 40-64%*
Fibers with Normal or Near-normal Appearance [3]: 36-60%
Lysosome Enlargement [3]: dramatically decreased lysosome size; also recorded: Dramatic size
tolerability (pediatric IOPD patients): generally well-tolerated
CK (pediatric IOPD patient; AT2221 115 mg QW): 1187 U/L
Pro-BNP (pediatric IOPD patient; AT2221 115 mg QW): 44.29 pg/mL
CK (pediatric IOPD patient; ATB200 20 mg/kg QW): 1834 U/L
Glc4 (pediatric IOPD patient; ATB200 20 mg/kg QW): 41.53 mmol/mol CRE
Pro-BNP (pediatric IOPD patient; ATB200 20 mg/kg QW): 36.3 pg/mL
Pro-BNP (pediatric IOPD patient; ATB200 20 mg/kg q2w): 151.5 pg/mL
Glc4 (pediatric IOPD patient; ATB200 20 mg/kg, AT2221 130 mg): 29.08 mmol/mol CRE
Pro-BNP (pediatric IOPD patient; ATB200 20 mg/kg, AT2221 130 mg): 45.52 pg/mL
Pro-BNP (pediatric IOPD patient; ATB200 25 mg/kg QW): 33.24 pg/mL
LVEF (pediatric IOPD patient; ATB200 25 mg/kg QW): 60.3%
LVMI (pediatric IOPD patient; ATB200 25 mg/kg QW): 43.6 g/m^2
CK (pediatric IOPD patient; ATB200 30 mg/kg, AT2221 130 mg): 1146 U/L
Pro-BNP (pediatric IOPD patient; ATB200 30 mg/kg, AT2221 130 mg): 29.25 pg/mL
LVEF (pediatric IOPD patient; ATB200 30 mg/kg, AT2221 130 mg): 57%
LVMI (pediatric IOPD patient; ATB200 30 mg/kg, AT2221 130 mg): 39.1 g/m^2
CK (pediatric IOPD patient; Change AT2221 to 115 mg QW): 1277 U/L
CK (pediatric IOPD patient; Change ATB200 to 20 mg/kg QW): 1674 U/L
Glc4 (pediatric IOPD patient; Change ATB200 to 20 mg/kg QW): 50.74 mmol/mol CRE
LVEF (pediatric IOPD patient; Change ATB200 to 20 mg/kg QW): 61.1%
LVMI (pediatric IOPD patient; Change ATB200 to 20 mg/kg QW): 38 g/m^2
CK (pediatric IOPD patient; Change ATB200 to 25 mg/kg QW): 1524 U/L
Glc4 (pediatric IOPD patient; Change ATB200 to 25 mg/kg QW): 34.85 mmol/mol CRE
Pro-BNP (pediatric IOPD patient; Change ATB200 to 25 mg/kg QW): 231.9 pg/mL
CK (pediatric IOPD patient; Change ATB200 to 30 mg/kg QW): 1661 U/L
Glc4 (pediatric IOPD patient; Change ATB200 to 30 mg/kg QW): 36.19 mmol/mol CRE
Pro-BNP (pediatric IOPD patient; Change ATB200 to 30 mg/kg QW): 180.6 pg/mL
CK (pediatric IOPD patient; change to ATB200 20 mg/kg q2w): 1393-1444 U/L
Glc4 (pediatric IOPD patient; change to ATB200 20 mg/kg q2w): 32.58 mmol/mol CRE
LVEF (pediatric IOPD patient; change to ATB200 20 mg/kg q2w): 41%
LVMI (pediatric IOPD patient; change to ATB200 20 mg/kg q2w): 42 g/m^2
skin rash, dyspnea, cough, pale-like complexion (pediatric IOPD patient; human, in vivo, 30 mg/kg): had not developed any skin rash, dyspnea, cough, or pale-like complexion
